# Experimental data from PubChem BioAssay (NCI).
#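 Grown in 96-well plates, cells were treated for 48 hours with each compound at five concentrations. Insufficient inhibition: endpoint recorded as highest concentration tested. TGI is the concentration that stops growth completely.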
# Key:
# Experiment in all cases: growth of human tumour cells (NCI), 48 h
# [1] = test system: SNB-75 CNS
# [2] = test system: A549 NSCLC
# [3] = test system: T-47D breast
# [4] = test system: MDA-N
# [5] = test system: EKVX NSCLC
# [6] = test system: HS 578T breast
# [7] = test system: SK-OV-3 ovarian
# [8] = test system: CCRF-CEM leukemia
# [9] = test system: SK-MEL-2 melanoma
# [10] = test system: MCF7 breast
# [11] = test system: KM12 colon
# [12] = test system: UACC-62 melanoma
# [13] = test system: LOX IMVI melanoma
# [14] = test system: UACC-257 melanoma
# [15] = test system: SN12C renal
# [16] = test system: HCT-15 colon
# [17] = test system: IGROV1 ovarian
# [18] = test system: PC-3 prostate
# [19] = test system: HCC-2998 colon
# [20] = test system: SF-295 CNS
# [21] = test system: OVCAR-8 ovarian
# [22] = test system: SW-620 colon
# [23] = test system: MALME-3M melanoma
# [24] = test system: NCI-H23 lung
# [25] = test system: OVCAR-5 ovarian
# [26] = test system: M14 melanoma
# [27] = test system: SF-268 CNS
# [28] = test system: COLO 205 colon
# [29] = test system: SK-MEL-5 melanoma
# [30] = test system: HOP-92 NSCLC
# [31] = test system: BT-549 breast
# [32] = test system: HCT-116 colon
# [33] = test system: NCI/ADR-RES ovarian
# [34] = test system: HOP-62 NSCLC
# [35] = test system: MOLT-4 leukemia
# [36] = test system: SNB-19 CNS
# [37] = test system: OVCAR-3 ovarian
# [38] = test system: RXF 393 renal
# [39] = test system: UO-31 renal
# [40] = test system: RPMI-8226 leukemia
# [41] = test system: SR leukemia
# [42] = test system: OVCAR-4 ovarian
# [43] = test system: CAKI-1 renal
# [44] = test system: U251 CNS
# [45] = test system: MDA-MB-231 breast
# [46] = test system: NCI-H522 lung
# [47] = test system: NCI-H460 lung
# [48] = test system: HT29 colon
# [49] = test system: SK-MEL-28 melanoma
# [50] = test system: DU-145 prostate
# [51] = test system: NCI-H226 lung
# [52] = test system: TK-10 renal
# [53] = test system: 786-0 renal
# [54] = test system: SF-539 CNS
# [55] = test system: A498 renal
# [56] = test system: ACHN renal
# [57] = test system: MDA-MB-435
# [58] = test system: HL-60(TB) leukemia
# [59] = test system: K-562 leukemia
structure (smiles),measurement,setting,value
O=C(/C=C/c1cccc2ccccc12)c1ccccc1,TGI,[1],30.6 µM
same,TGI,[2],> 52.4 µM
same,TGI,[3],27.3 µM
same,TGI,[4],23.9 µM
same,TGI,[5],26.3 µM
same,TGI,[6],> 74.9 µM
same,TGI,[7],34.2 µM
same,TGI,[8],87.3 µM
same,TGI,[9],34.2 µM
same,TGI,[10],15.1 µM
same,TGI,[11],> 42.2 µM
same,TGI,[12],25.3 µM
same,TGI,[13],4.53 µM
same,TGI,[14],29.7 µM
same,TGI,[15],24.9 µM
same,TGI,[16],23.1 µM
same,TGI,[17],20.5 µM
same,TGI,[18],20.4 µM
same,TGI,[19],34.1 µM
same,TGI,[20],35.1 µM
same,TGI,[21],21.6 µM
same,TGI,[22],15.5 µM
same,TGI,[23],26.9 µM
same,TGI,[24],28 µM
same,TGI,[25],28.8 µM
same,TGI,[26],32.9 µM
same,TGI,[27],32.6 µM
same,TGI,[28],48.6 µM
same,TGI,[29],28.4 µM
same,TGI,[30],33.6 µM
same,TGI,[31],28.5 µM
same,TGI,[32],24.1 µM
same,TGI,[33],33.6 µM
same,TGI,[34],43 µM
same,TGI,[35],> 34.7 µM
same,TGI,[36],30.2 µM
same,TGI,[37],22.4 µM
same,TGI,[38],27.5 µM
same,TGI,[39],16.3 µM
same,TGI,[40],7.98 µM
same,TGI,[41],> 100 µM
same,TGI,[42],27.1 µM
same,TGI,[43],28 µM
same,TGI,[44],22 µM
same,TGI,[45],25.5 µM
same,TGI,[46],25.2 µM
same,TGI,[47],37.2 µM
same,TGI,[48],15.8 µM
same,TGI,[49],33.6 µM
same,TGI,[50],29 µM
same,TGI,[51],27.9 µM
same,TGI,[52],17.6 µM
same,TGI,[53],23.5 µM
same,TGI,[54],15.6 µM
same,TGI,[55],33.3 µM
same,TGI,[56],26.9 µM
same,TGI,[57],24.1 µM
same,TGI,[58],> 21.2 µM
same,TGI,[59],8.69 µM
CCc1nc(N)nc(N)c1-c1ccc2c(c1)nnn2CCc1ccccc1,TGI,[1],64.1 µM
same,TGI,[2],> 100 µM
same,TGI,[3],64.5 µM
same,TGI,[4],> 68.3 µM
same,TGI,[5],> 75.8 µM
same,TGI,[6],> 85 µM
same,TGI,[7],> 75.2 µM
same,TGI,[8],> 69.9 µM
same,TGI,[9],61.9 µM
same,TGI,[10],> 70 µM
same,TGI,[11],> 64.1 µM
same,TGI,[12],> 65.7 µM
same,TGI,[13],> 65 µM
same,TGI,[14],> 68.8 µM
same,TGI,[15],> 73.5 µM
same,TGI,[16],> 63.2 µM
same,TGI,[17],> 70.3 µM
same,TGI,[18],> 64.7 µM
same,TGI,[19],51.4 µM
same,TGI,[20],57.1 µM
same,TGI,[21],> 64.9 µM
same,TGI,[22],> 66.5 µM
same,TGI,[23],49.5 µM
same,TGI,[24],> 64.9 µM
same,TGI,[25],> 82.5 µM
same,TGI,[26],> 65.9 µM
same,TGI,[27],> 64.2 µM
same,TGI,[28],42 µM
same,TGI,[29],32.2 µM
same,TGI,[30],> 79.6 µM
same,TGI,[31],> 69 µM
same,TGI,[32],> 61.1 µM
same,TGI,[33],68.8 µM
same,TGI,[34],> 69.9 µM
same,TGI,[35],50.2 µM
same,TGI,[36],86.4 µM
same,TGI,[37],> 70.1 µM
same,TGI,[38],> 73.8 µM
same,TGI,[39],> 60.6 µM
same,TGI,[40],51.8 µM
same,TGI,[41],49.5 µM
same,TGI,[42],> 100 µM
same,TGI,[43],> 100 µM
same,TGI,[44],> 70.5 µM
same,TGI,[45],> 72.4 µM
same,TGI,[46],33.9 µM
same,TGI,[47],51.2 µM
same,TGI,[48],56.1 µM
same,TGI,[49],> 71.5 µM
same,TGI,[50],> 65.2 µM
same,TGI,[51],> 71.8 µM
same,TGI,[52],> 83.7 µM
same,TGI,[53],64.4 µM
same,TGI,[54],> 68.9 µM
same,TGI,[55],> 79 µM
same,TGI,[56],> 70.1 µM
same,TGI,[57],> 68.7 µM
same,TGI,[58],35.3 µM
same,TGI,[59],> 51.1 µM
